Results: PubChem BioAssay AID1919003 (Molecular Pharmacology Branch, DTP, NCI, 2023)

Tested on: 786-0 complex spheroids with HUVEC/MSC, growth % test/control
Assay: Anticancer human tumor 786-0 cell line growth inhibition [AhR];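 note: compound exposure lasted seven days before the read-out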
Conditions: for IC50: curve of first compound; for viability, T/C: stronger effect = lower value; active = viability on the fitted dose curve at most 10% of control; inactive = the rest
How it was run: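 Spheroids combined tumor cells with HUVEC endothelial cells and human MSCs as stroma. AhR antagonists were paired with standard or investigational drugs, each dosed in half-log steps down from near clinical Cmax, or from 10 microM where Cmax was unknown.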

[1] = second compound 0.1 µM, first compound 0.0316 µM
[2] = second compound 0.1 µM, first compound 0.1 µM
[3] = second compound 0.1 µM, first compound 0.316 µM
[4] = second compound 0.1 µM, first compound 1 µM
[5] = second compound 0.316 µM, first compound 0.0316 µM
[6] = second compound 0.316 µM, first compound 0.1 µM
[7] = second compound 0.316 µM, first compound 0.316 µM
[8] = second compound 0.316 µM, first compound 1 µM
[9] = second compound 1 µM, first compound 0.0316 µM
[10] = second compound 1 µM, first compound 0.1 µM
[11] = second compound 1 µM, first compound 0.316 µM
[12] = second compound 1 µM, first compound 1 µM
[13] = second compound 3.16 µM, first compound 0.0316 µM
[14] = second compound 3.16 µM, first compound 0.1 µM
[15] = second compound 3.16 µM, first compound 0.316 µM
[16] = second compound 3.16 µM, first compound 1 µM
[17] = second compound 10 µM, first compound 0.0316 µM
[18] = second compound 10 µM, first compound 0.1 µM
[19] = second compound 10 µM, first compound 0.316 µM
[20] = second compound 10 µM, first compound 1 µM
[21] = second compound 0.1 µM, first compound 0.000949 µM
[22] = second compound 0.1 µM, first compound 0.003 µM
[23] = second compound 0.1 µM, first compound 0.00949 µM
[24] = second compound 0.1 µM, first compound 0.03 µM
[25] = second compound 0.1 µM, first compound 0.0949 µM
[26] = second compound 0.1 µM, first compound 0.3 µM
[27] = second compound 0.316 µM, first compound 0.000949 µM
[28] = second compound 0.316 µM, first compound 0.003 µM
[29] = second compound 0.316 µM, first compound 0.00949 µM
[30] = second compound 0.316 µM, first compound 0.03 µM
[31] = second compound 0.316 µM, first compound 0.0949 µM
[32] = second compound 0.316 µM, first compound 0.3 µM
[33] = second compound 1 µM, first compound 0.000949 µM
[34] = second compound 1 µM, first compound 0.003 µM
[35] = second compound 1 µM, first compound 0.00949 µM
[36] = second compound 1 µM, first compound 0.03 µM
[37] = second compound 1 µM, first compound 0.0949 µM
[38] = second compound 1 µM, first compound 0.3 µM
[39] = second compound 3.16 µM, first compound 0.000949 µM
[40] = second compound 3.16 µM, first compound 0.003 µM
[41] = second compound 3.16 µM, first compound 0.00949 µM
[42] = second compound 3.16 µM, first compound 0.03 µM
[43] = second compound 3.16 µM, first compound 0.0949 µM
[44] = second compound 3.16 µM, first compound 0.3 µM
[45] = second compound 10 µM, first compound 0.000949 µM
[46] = second compound 10 µM, first compound 0.003 µM
[47] = second compound 10 µM, first compound 0.00949 µM
[48] = second compound 10 µM, first compound 0.03 µM
[49] = second compound 10 µM, first compound 0.0949 µM
[50] = second compound 10 µM, first compound 0.3 µM

CC1(C)CCC(CN2CCN(c3ccc(C(=O)NS(=O)(=O)c4ccc(NCC5CCOCC5)c([N+](=O)[O-])c4)c(Oc4cnc5[nH]ccc5c4)c3)CC2)=C(c2ccc(Cl)cc2)C1 + Cc1ccccc1N=Nc1ccc(NC(=O)c2ccnn2C)c(C)c1
> 10000 nM: IC50 (second compound 0.1 µM) | IC50 (second compound 0.316 µM) | IC50 (second compound 1 µM) | IC50 (second compound 3.16 µM) | IC50 (second compound 10 µM)
inactive: viability, T/C [1] 97.2% | viability, T/C [2] 103% | viability, T/C [3] 95.2% | viability, T/C [4] 109% | viability, T/C (second compound 0.1 µM, first compound 3.16 µM) 89.5% | viability, T/C (second compound 0.1 µM, first compound 10 µM) 83.8% | viability, T/C [5] 109% | viability, T/C [6] 99% | viability, T/C [7] 102% | viability, T/C [8] 106% | viability, T/C (second compound 0.316 µM, first compound 3.16 µM) 97.8% | viability, T/C (second compound 0.316 µM, first compound 10 µM) 77.9% | viability, T/C [9] 97.5% | viability, T/C [10] 95.1% | viability, T/C [11] 96.7% | viability, T/C [12] 99.4% | viability, T/C (second compound 1 µM, first compound 3.16 µM) 91.8% | viability, T/C (second compound 1 µM, first compound 10 µM) 80% | viability, T/C [13] 95.6% | viability, T/C [14] 96.9% | viability, T/C [15] 99.2% | viability, T/C [16] 90.4% | viability, T/C (second compound 3.16 µM, first compound 3.16 µM) 77.1% | viability, T/C (second compound 3.16 µM, first compound 10 µM) 82.9% | viability, T/C [17] 94.6% | viability, T/C [18] 96.3% | viability, T/C [19] 88.3% | viability, T/C [20] 87.8% | viability, T/C (second compound 10 µM, first compound 3.16 µM) 75.7% | viability, T/C (second compound 10 µM, first compound 10 µM) 65.5%

CC(C)CC(NC(=O)C(Cc1ccccc1)NC(=O)c1cnccn1)B(O)O (stereo not given) + CC(CO)NC(=O)c1cc(-c2ccc(Cl)cc2)nn(-c2cnn(C)c2)c1=O
active: viability, T/C [24] 0.34% | viability, T/C [25] 0.27% | viability, T/C [26] 0.18% | viability, T/C [30] 0.39% | viability, T/C [31] 0.19% | viability, T/C [32] 0.19% | viability, T/C [36] 0.56% | viability, T/C [37] 0.17% | viability, T/C [38] 0.33% | viability, T/C [42] 1.26% | viability, T/C [43] 0.23% | viability, T/C [44] 0.25% | viability, T/C [48] 1.88% | viability, T/C [49] 0.9% | viability, T/C [50] 0.37%
7.94 nM: IC50 (second compound 3.16 µM)
inactive: viability, T/C [21] 108% | viability, T/C [22] 103% | viability, T/C [23] 38.4% | viability, T/C [27] 114% | viability, T/C [28] 117% | viability, T/C [29] 41.9% | viability, T/C [33] 112% | viability, T/C [34] 112% | viability, T/C [35] 43.3% | viability, T/C [39] 117% | viability, T/C [40] 118% | viability, T/C [41] 37.6% | viability, T/C [45] 120% | viability, T/C [46] 127% | viability, T/C [47] 35.9%
7.71 nM: IC50 (second compound 0.1 µM)
8.49 nM: IC50 (second compound 1 µM)
7.88 nM: IC50 (second compound 10 µM)
8.36 nM: IC50 (second compound 0.316 µM)

Nc1ncn(C2CC(O)C(CO)O2)c(=O)n1 (stereo not given) + Cc1ccccc1N=Nc1ccc(NC(=O)c2ccnn2C)c(C)c1
> 1000 nM: IC50 (second compound 0.1 µM) | IC50 (second compound 0.316 µM) | IC50 (second compound 1 µM) | IC50 (second compound 3.16 µM) | IC50 (second compound 10 µM)
inactive: viability, T/C (second compound 0.1 µM, first compound 0.00316 µM) 103% | viability, T/C (second compound 0.1 µM, first compound 0.01 µM) 114% | viability, T/C [1] 105% | viability, T/C [2] 101% | viability, T/C [3] 98.3% | viability, T/C [4] 90.6% | viability, T/C (second compound 0.316 µM, first compound 0.00316 µM) 105% | viability, T/C (second compound 0.316 µM, first compound 0.01 µM) 104% | viability, T/C [5] 106% | viability, T/C [6] 99.5% | viability, T/C [7] 96.6% | viability, T/C [8] 92.9% | viability, T/C (second compound 1 µM, first compound 0.00316 µM) 106% | viability, T/C (second compound 1 µM, first compound 0.01 µM) 112% | viability, T/C [9] 105% | viability, T/C [10] 104% | viability, T/C [11] 95.2% | viability, T/C [12] 94.5% | viability, T/C (second compound 3.16 µM, first compound 0.00316 µM) 104% | viability, T/C (second compound 3.16 µM, first compound 0.01 µM) 102% | viability, T/C [13] 100% | viability, T/C [14] 94.9% | viability, T/C [15] 92.8% | viability, T/C [16] 89.7% | viability, T/C (second compound 10 µM, first compound 0.00316 µM) 93.4% | viability, T/C (second compound 10 µM, first compound 0.01 µM) 95.3% | viability, T/C [17] 91.3% | viability, T/C [18] 87.1% | viability, T/C [19] 83.2% | viability, T/C [20] 77.2%

Nc1ncn(C2CC(O)C(CO)S2)c(=O)n1 (stereo not given) + CC(CO)NC(=O)c1cc(-c2ccc(Cl)cc2)nn(-c2cnn(C)c2)c1=O
> 300 nM: IC50 (second compound 0.1 µM) | IC50 (second compound 0.316 µM) | IC50 (second compound 1 µM) | IC50 (second compound 3.16 µM) | IC50 (second compound 10 µM)
inactive: viability, T/C [21] 102% | viability, T/C [22] 97.3% | viability, T/C [23] 99.8% | viability, T/C [24] 102% | viability, T/C [25] 92.3% | viability, T/C [26] 67.2% | viability, T/C [27] 101% | viability, T/C [28] 109% | viability, T/C [29] 109% | viability, T/C [30] 107% | viability, T/C [31] 94.8% | viability, T/C [32] 64.7% | viability, T/C [33] 104% | viability, T/C [34] 115% | viability, T/C [35] 111% | viability, T/C [36] 102% | viability, T/C [37] 97.9% | viability, T/C [38] 63.1% | viability, T/C [39] 122% | viability, T/C [40] 108% | viability, T/C [41] 115% | viability, T/C [42] 108% | viability, T/C [43] 92.6% | viability, T/C [44] 66.4% | viability, T/C [45] 118% | viability, T/C [46] 116% | viability, T/C [47] 117% | viability, T/C [48] 123% | viability, T/C [49] 119% | viability, T/C [50] 68.1%
